# Experiments:
# [1] = Compound cytotoxicity, XTT-based colorimetric assay; format: cell-based; details: human; uninfected MT2 cells, day 4, XTT; read-out: CC50
# Summary of the method: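 Follows the antiviral assay procedure, but with uninfected MT2 cells. On day 4, cell viability is measured by XTT-based colorimetry, giving CC50 values.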
# [2] = tested on: recombinant NL4-3 virus (nef section replaced with Renilla luciferase gene) in MT-2 cells; test: HIV cell culture assay (antiviral activity, luciferase readout); format: cell-based; details: Renilla, NL43, MT-2 cells infected for 4-5 days with recombinant NL4-3 Renilla luciferase virus
# Summary of the method: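 Antiviral EC50 derived from luciferase signal using the exponential median effect equation. Infection of MT-2 cells ran 4-5 days alongside serial dilutions of compound, with virus generated by proviral clone transfection of 293T cells.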
SMILES,CC50 at 4 days [1] [nM],EC50 [2] [nM]
"CS(=O)(=O)Nc1nn(CCN2CCC(F)(F)C2)c2c(-n3c([C@H](Cc4cc(F)cc(F)c4)NC(=O)Cn4nc(C(F)F)c5c4C(F)(F)[C@@H]4C[C@H]54)nc4nc(C5CCC(F)(F)CC5)cc(C(F)F)c4c3=O)ccc(Cl)c12 (atropisomer, axis not shown; (P)) [Example 154, N-[(1S)-1-[(3P)-3-{4-chloro-1-[2-(3,3-difluoropyrrolidin-1-yl)ethyl]-3-methanesulfonamido-1H-indazol-7-yl}-7-(4,4-difluorocyclohexyl)-5-(difluoromethyl)-4-oxo-3H,4H-pyrido[2,3-d]pyrimidin-2-yl]-2-(3,5-difluorophenyl)ethyl]-2-[(2S,4R)-9-(difluoromethyl)-5,5-difluoro-7,8-diazatricyclo[4.3.0.0^2,^4]nona-1(6),8-dien-7-yl]acetamide]",> 50,0.019
"CS(=O)(=O)Nc1nn(CCOCC(F)(F)F)c2c(-n3c([C@H](Cc4cc(F)cc(F)c4)NC(=O)Cn4nc(C(F)F)c5c4C(F)(F)[C@@H]4C[C@H]54)nc4nc(C5CCC(F)(F)CC5)cc(C(F)F)c4c3=O)ccc(Cl)c12 (atropisomer, axis not shown; (P)) [Example 155, N-[(1S)-1-[(3P)-3-{4-chloro-3-methanesulfonamido-1-[2-(2,2,2-trifluoroethoxy)ethyl]-1H-indazol-7-yl}-7-(4,4-difluorocyclohexyl)-5-(difluoromethyl)-4-oxo-3H,4H-pyrido[2,3-d]pyrimidin-2-yl]-2-(3,5-difluorophenyl)ethyl]-2-[(2S,4R)-9-(difluoromethyl)-5,5-difluoro-7,8-diazatricyclo[4.3.0.0^2,^4]nona-1(6),8-dien-7-yl]acetamide]",> 50,0.027
"CS(=O)(=O)Nc1nn(CCN2CCC(F)(F)C2)c2c(-n3c([C@H](Cc4cc(F)cc(F)c4)NC(=O)Cn4nc(C(F)F)c5c4C(F)(F)[C@@H]4C[C@H]54)nc4nc(C5CCC(F)(F)CC5)ccc4c3=O)ccc(Cl)c12 (atropisomer, axis not shown; (P)) [Example 158, N-[(1S)-1-[(3P)-3-{4-chloro-1-[2-(3,3-difluoropyrrolidin-1-yl)ethyl]-3-methanesulfonamido-1H-indazol-7-yl}-7-(4,4-difluorocyclohexyl)-4-oxo-3H,4H-pyrido[2,3-d]pyrimidin-2-yl]-2-(3,5-difluorophenyl)ethyl]-2-[(2S,4R)-9-(difluoromethyl)-5,5-difluoro-7,8-diazatricyclo[4.3.0.0^2,^4]nona-1(6),8-dien-7-yl]acetamide]",> 50,0.011
"Cc1cc(C2CCC(F)(F)CC2)nc2nc([C@H](Cc3cc(F)cc(F)c3)NC(=O)Cn3nc(C(F)F)c4c3C(F)(F)[C@@H]3C[C@H]43)n(-c3ccc(Cl)c4c(NS(C)(=O)=O)nn(CCN5C[C@@H](C)O[C@@H](C)C5)c34)c(=O)c12 (atropisomer, axis not shown; (P)) [Example 159, N-[(1S)-1-[(3P)-3-(4-chloro-1-{2-[(2R,6S)-2,6-dimethylmorpholin-4-yl]ethyl}-3-methanesulfonamido-1H-indazol-7-yl)-7-(4,4-difluorocyclohexyl)-5-methyl-4-oxo-3H,4H-pyrido[2,3-d]pyrimidin-2-yl]-2-(3,5-difluorophenyl)ethyl]-2-[(2S,4R)-9-(difluoromethyl)-5,5-difluoro-7,8-diazatricyclo[4.3.0.0^2,4]nona-1(6),8-dien-7-yl]acetamide]",> 50,0.017
"CS(=O)(=O)Nc1nn(CCN2CC(C(F)F)C2)c2c(-n3c([C@H](Cc4cc(F)cc(F)c4)NC(=O)Cn4nc(C(F)F)c5c4C(F)(F)[C@@H]4C[C@H]54)nc4nc(C5CCC(F)(F)CC5)ccc4c3=O)ccc(Cl)c12 (atropisomer, axis not shown; (P)) [Example 160, N-[(1S)-1-[(3P)-3-(4-chloro-1-{2-[3-(difluoromethyl)azetidin-1-yl]ethyl}-3-methanesulfonamido-1H-indazol-7-yl)-7-(4,4-difluorocyclohexyl)-4-oxo-3H,4H-pyrido[2,3-d]pyrimidin-2-yl]-2-(3,5-difluorophenyl)ethyl]-2-[(2S,4R)-9-(difluoromethyl)-5,5-difluoro-7,8-diazatricyclo[4.3.0.0^2,^4]nona-1(6),8-dien-7-yl]acetamide]",> 50,0.023
"CS(=O)(=O)Nc1nn(CCN2CCCCC2)c2c(-n3c([C@H](Cc4cc(F)cc(F)c4)NC(=O)Cn4nc(C(F)F)c5c4C(F)(F)[C@@H]4C[C@H]54)nc4nc(C5CCC(F)(F)CC5)ccc4c3=O)ccc(Cl)c12 (atropisomer, axis not shown; (P)) [Example 165, N-[(1S)-1-[(3P)-3-{4-chloro-3-methanesulfonamido-1-[2-(piperidin-1-yl)ethyl]-1H-indazol-7-yl}-7-(4,4-difluorocyclohexyl)-4-oxo-3H,4H-pyrido[2,3-d]pyrimidin-2-yl]-2-(3,5-difluorophenyl)ethyl]-2-[(2S,4R)-9-(difluoromethyl)-5,5-difluoro-7,8-diazatricyclo[4.3.0.0^2,^4]nona-1(6),8-dien-7-yl]acetamide]",> 50,0.031
"CS(=O)(=O)Nc1nn(CCN2CCC(F)CC2)c2c(-n3c([C@H](Cc4cc(F)cc(F)c4)NC(=O)Cn4nc(C(F)F)c5c4C(F)(F)[C@@H]4C[C@H]54)nc4nc(C5CCC(F)(F)CC5)ccc4c3=O)ccc(Cl)c12 (atropisomer, axis not shown; (P)) [Example 166, N-[(1S)-1-[(3P)-3-{4-chloro-1-[2-(4-fluoropiperidin-1-yl)ethyl]-3-methanesulfonamido-1H-indazol-7-yl}-7-(4,4-difluorocyclohexyl)-4-oxo-3H,4H-pyrido[2,3-d]pyrimidin-2-yl]-2-(3,5-difluorophenyl)ethyl]-2-[(2S,4R)-9-(difluoromethyl)-5,5-difluoro-7,8-diazatricyclo[4.3.0.0^2,^4]nona-1(6),8-dien-7-yl]acetamide]",> 50,0.019
"CC1(F)CCN(CCn2nc(NS(C)(=O)=O)c3c(Cl)ccc(-n4c([C@H](Cc5cc(F)cc(F)c5)NC(=O)Cn5nc(C(F)F)c6c5C(F)(F)[C@@H]5C[C@H]65)nc5nc(C6CCC(F)(F)CC6)ccc5c4=O)c32)CC1 (atropisomer, axis not shown; (P)) [Example 167, N-[(1S)-1-[(3P)-3-{4-chloro-1-[2-(4-fluoro-4-methylpiperidin-1-yl)ethyl]-3-methanesulfonamido-1H-indazol-7-yl}-7-(4,4-difluorocyclohexyl)-4-oxo-3H,4H-pyrido[2,3-d]pyrimidin-2-yl]-2-(3,5-difluorophenyl)ethyl]-2-[(2S,4R)-9-(difluoromethyl)-5,5-difluoro-7,8-diazatricyclo[4.3.0.0^2,^4]nona-1(6),8-dien-7-yl]acetamide]",> 50,0.024

# — US12594276B2, “Inhibitors of human immunodeficiency virus replication” (ViiV Healthcare UK (No.5) Limited, priority 2024, dated 2026)
